Our source for the GI50 and TGI values is PubChem BioAssay (NCI).

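In this assay, cells in 96-well plates receive the compound at five concentrations for 48 hours. Endpoints are linearly interpolated between the surrounding concentrations. Here, GI50 denotes the concentration required for 50% inhibition of growth. At the TGI there is no net growth.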

The first assay concerns MALME-3M melanoma. The experiment in a line: inhibition of tumour cell growth, NCI panel, 48 h.
Consider `COc1cc2c3c(n(C)c(=O)c2cc1OC)-c1cc2c(cc1/C3=C\CCCN)OCO2`, for which the GI50 is 10.1 µM and the TGI came out at 38.6 µM.
In turn, `Cc1ccc(S(=O)(=O)Nc2ccccc2C(=O)c2ccc(C)c(C)c2)cc1` yielded a TGI greater than 100 µM.
As for `COc1ccc(-c2nnc(COc3ccc(NC(=O)Nc4cc(C(F)(F)F)cc(C(F)(F)F)c4)cc3F)o2)cc1`, the GI50 was 1.85 µM and the TGI worked out at 4.77 µM.
As for `COC1=CC(=O)C(C2CC(=O)c3c(O)cc(O)cc3O2)=CC1=O` (stereo not given), the TGI stood at 34.8 µM.
In the case of `COc1cc(/C=C/c2cc(O)c(C(C)=O)c(O)c2)cc2c1O[C@]1(C)CC[C@@H](O)C(C)(C)[C@H]1C2`, the GI50 was 7.35 µM and the TGI stood at 44.2 µM.
As for `CC(C)C(C)/C=C\C(C)C1CCC2C3=CC=C4CC(O)CCC4(C)C3CCC21C` (stereo not given), the TGI is greater than 50.6 µM.
`Cc1cc2c(cc1Cl)SC(N(N(C)C)S(=O)(=O)c1ccc(Cl)cc1)=NS2(=O)=O`: the GI50 was 22 µM and the TGI is 62 µM.
With `Nc1ncnc2n[nH]c(Nc3ccc(F)cc3)c12`, the GI50 was 30.6 µM and the TGI was greater than 100 µM.
`OC(c1nc2ccccc2[nH]1)C(O)C(O)C(O)c1nc2ccccc2[nH]1` (stereo not given) yielded a TGI greater than 100 µM.
Still for that read-out and setting: in the case of `CCOC(=O)c1cc2nc3ccccc3c(=O)n2c2ccccc12` it was greater than 10 µM.
In turn, `Cc1cc(O)c(/C=N/C(=S)NCc2ccccc2)c(=O)o1` had a TGI greater than 100 µM.
`C[Si](C)(C)C1(Sc2ccccc2)SCCCS1`: the TGI is greater than 100 µM.
Regarding `Cc1cc(I)cc(CN(C)CCCN2CCCCC2)c1O`, the GI50 was 21.7 µM and the TGI was 42.3 µM.
`CC(C)(C)OC(=O)N[C@H]1CC2(C=C(Cl)C(=O)C(Cl)=C2)OC1=O` had a TGI of 25.9 µM.
For the molecule `COc1cc2c3c(n(C)c(=O)c2cc1OC)-c1cc2c(cc1/C3=C\CCN)OCO2`, the GI50 is 0.239 µM and the TGI was found to be 2.07 µM.

The subject of the next assay is OVCAR-8 ovarian. Kind of assay: inhibition of tumour cell growth, NCI panel, 48 h.
For the molecule `COc1cc2c3c(n(C)c(=O)c2cc1OC)-c1cc2c(cc1/C3=C\CCCN)OCO2`, the GI50 was 10.1 µM and the TGI was 22.4 µM.
Molecule `Cc1ccc(S(=O)(=O)Nc2ccccc2C(=O)c2ccc(C)c(C)c2)cc1` yielded a TGI greater than 100 µM.
As to `COc1ccc(-c2nnc(COc3ccc(NC(=O)Nc4cc(C(F)(F)F)cc(C(F)(F)F)c4)cc3F)o2)cc1`, the GI50 is 1.89 µM and the TGI stood at 5.85 µM.
The molecule `COC1=CC(=O)C(C2CC(=O)c3c(O)cc(O)cc3O2)=CC1=O` (stereo not given) gave a TGI of 59.7 µM.
For the molecule `COc1cc(/C=C/c2cc(O)c(C(C)=O)c(O)c2)cc2c1O[C@]1(C)CC[C@@H](O)C(C)(C)[C@H]1C2`, the GI50 is 8.24 µM and the TGI was greater than 100 µM.
In turn, `CC(C)C(C)/C=C\C(C)C1CCC2C3=CC=C4CC(O)CCC4(C)C3CCC21C` (stereo not given) had a TGI greater than 53.9 µM.
Consider `Cc1cc2c(cc1Cl)SC(N(N(C)C)S(=O)(=O)c1ccc(Cl)cc1)=NS2(=O)=O`, for which the GI50 is 36.6 µM and the TGI was greater than 100 µM.
The corresponding values for `Nc1ncnc2n[nH]c(Nc3ccc(F)cc3)c12` are 22.5 µM and greater than 100 µM.
With `OC(c1nc2ccccc2[nH]1)C(O)C(O)C(O)c1nc2ccccc2[nH]1` (stereo not given), the TGI is greater than 100 µM.
On the same count and under the same terms, in the case of `CCOC(=O)c1cc2nc3ccccc3c(=O)n2c2ccccc12` it was greater than 10 µM; in that of `Cc1cc(O)c(/C=N/C(=S)NCc2ccccc2)c(=O)o1`, greater than 100 µM.
On the same count and under the same terms, next, `C[Si](C)(C)C1(Sc2ccccc2)SCCCS1`: greater than 100 µM.
For `Cc1cc(I)cc(CN(C)CCCN2CCCCC2)c1O`, the GI50 was 26.9 µM and the TGI was greater than 100 µM.
For `CC(C)(C)OC(=O)N[C@H]1CC2(C=C(Cl)C(=O)C(Cl)=C2)OC1=O`, the TGI was 34.5 µM.
Consider `COc1cc2c3c(n(C)c(=O)c2cc1OC)-c1cc2c(cc1/C3=C\CCN)OCO2`, for which the GI50 was 0.169 µM and the TGI was determined as 5.65 µM.

The next assay concerns M14 melanoma. The experiment in a line: inhibition of tumour cell growth, NCI panel, 48 h.
`COc1cc2c3c(n(C)c(=O)c2cc1OC)-c1cc2c(cc1/C3=C\CCCN)OCO2`: the GI50 is 12.4 µM and the TGI is greater than 100 µM.
With `Cc1ccc(S(=O)(=O)Nc2ccccc2C(=O)c2ccc(C)c(C)c2)cc1`, the TGI was greater than 100 µM.
Turning to `COc1ccc(-c2nnc(COc3ccc(NC(=O)Nc4cc(C(F)(F)F)cc(C(F)(F)F)c4)cc3F)o2)cc1`, the GI50 is 2.97 µM and the TGI was determined as 11.4 µM.
The molecule `COC1=CC(=O)C(C2CC(=O)c3c(O)cc(O)cc3O2)=CC1=O` (stereo not given) showed a TGI of 35.1 µM.
In the case of `COc1cc(/C=C/c2cc(O)c(C(C)=O)c(O)c2)cc2c1O[C@]1(C)CC[C@@H](O)C(C)(C)[C@H]1C2`, the GI50 is 5.12 µM and the TGI stood at 49.4 µM.
Molecule `CC(C)C(C)/C=C\C(C)C1CCC2C3=CC=C4CC(O)CCC4(C)C3CCC21C` (stereo not given) displayed a TGI greater than 67.7 µM.
For the molecule `Cc1cc2c(cc1Cl)SC(N(N(C)C)S(=O)(=O)c1ccc(Cl)cc1)=NS2(=O)=O`, the GI50 is 27.8 µM and the TGI is greater than 100 µM.
The corresponding values for `Nc1ncnc2n[nH]c(Nc3ccc(F)cc3)c12` are 13.4 µM and greater than 100 µM.
`OC(c1nc2ccccc2[nH]1)C(O)C(O)C(O)c1nc2ccccc2[nH]1` (stereo not given) had a TGI greater than 100 µM.
Still for that read-out and setting: in the case of `CCOC(=O)c1cc2nc3ccccc3c(=O)n2c2ccccc12` it was greater than 10 µM; in that of `Cc1cc(O)c(/C=N/C(=S)NCc2ccccc2)c(=O)o1`, greater than 100 µM; in that of `C[Si](C)(C)C1(Sc2ccccc2)SCCCS1`, greater than 100 µM.
As for `Cc1cc(I)cc(CN(C)CCCN2CCCCC2)c1O`, the GI50 was 14.4 µM and the TGI worked out at 27.5 µM.
For `CC(C)(C)OC(=O)N[C@H]1CC2(C=C(Cl)C(=O)C(Cl)=C2)OC1=O`, the TGI turned out to be 33.7 µM.
`COc1cc2c3c(n(C)c(=O)c2cc1OC)-c1cc2c(cc1/C3=C\CCN)OCO2`: the GI50 was 0.22 µM and the TGI was found to be 4.82 µM.

Another assay relates to RXF 393 renal. The experiment in a line: inhibition of tumour cell growth, NCI panel, 48 h.
As to `COc1cc2c3c(n(C)c(=O)c2cc1OC)-c1cc2c(cc1/C3=C\CCCN)OCO2`, the GI50 was 5.84 µM and the TGI stood at 32 µM.
On to `Cc1ccc(S(=O)(=O)Nc2ccccc2C(=O)c2ccc(C)c(C)c2)cc1`, for which the TGI is greater than 100 µM.
`COc1ccc(-c2nnc(COc3ccc(NC(=O)Nc4cc(C(F)(F)F)cc(C(F)(F)F)c4)cc3F)o2)cc1`: the GI50 is 1.96 µM and the TGI came out at 6.06 µM.
On to `COC1=CC(=O)C(C2CC(=O)c3c(O)cc(O)cc3O2)=CC1=O` (stereo not given), for which the TGI came out at 34.8 µM.
Consider `COc1cc(/C=C/c2cc(O)c(C(C)=O)c(O)c2)cc2c1O[C@]1(C)CC[C@@H](O)C(C)(C)[C@H]1C2`, for which the GI50 was 1.7 µM and the TGI is 6.06 µM.
`CC(C)C(C)/C=C\C(C)C1CCC2C3=CC=C4CC(O)CCC4(C)C3CCC21C` (stereo not given) yielded a TGI greater than 58.7 µM.
For `Cc1cc2c(cc1Cl)SC(N(N(C)C)S(=O)(=O)c1ccc(Cl)cc1)=NS2(=O)=O`, the GI50 is 31.3 µM and the TGI was greater than 100 µM.
The corresponding values for `Nc1ncnc2n[nH]c(Nc3ccc(F)cc3)c12` are 13.6 µM and greater than 100 µM.
The molecule `OC(c1nc2ccccc2[nH]1)C(O)C(O)C(O)c1nc2ccccc2[nH]1` (stereo not given) registered a TGI greater than 100 µM.
`CCOC(=O)c1cc2nc3ccccc3c(=O)n2c2ccccc12` yielded a TGI greater than 10 µM.
`Cc1cc(O)c(/C=N/C(=S)NCc2ccccc2)c(=O)o1` had a TGI greater than 100 µM.
Molecule `C[Si](C)(C)C1(Sc2ccccc2)SCCCS1` gave a TGI greater than 100 µM.
Turning to `Cc1cc(I)cc(CN(C)CCCN2CCCCC2)c1O`, the GI50 is 11.7 µM and the TGI is 26.6 µM.
For the molecule `CC(C)(C)OC(=O)N[C@H]1CC2(C=C(Cl)C(=O)C(Cl)=C2)OC1=O`, the TGI is 22.4 µM.
Take `COc1cc2c3c(n(C)c(=O)c2cc1OC)-c1cc2c(cc1/C3=C\CCN)OCO2`: the GI50 is 0.823 µM and the TGI was 6.86 µM.

The next assay has as its system OVCAR-3 ovarian. Kind of assay: inhibition of tumour cell growth, NCI panel, 48 h.
On to `COc1cc2c3c(n(C)c(=O)c2cc1OC)-c1cc2c(cc1/C3=C\CCCN)OCO2`, for which the GI50 was 13.8 µM and the TGI came to 29.8 µM.
Turning to `Cc1ccc(S(=O)(=O)Nc2ccccc2C(=O)c2ccc(C)c(C)c2)cc1`, the TGI is greater than 100 µM.
In the case of `COc1ccc(-c2nnc(COc3ccc(NC(=O)Nc4cc(C(F)(F)F)cc(C(F)(F)F)c4)cc3F)o2)cc1`, the GI50 is 1.5 µM and the TGI worked out at 4.66 µM.
The molecule `COC1=CC(=O)C(C2CC(=O)c3c(O)cc(O)cc3O2)=CC1=O` (stereo not given) registered a TGI of 39.9 µM.
As for `COc1cc(/C=C/c2cc(O)c(C(C)=O)c(O)c2)cc2c1O[C@]1(C)CC[C@@H](O)C(C)(C)[C@H]1C2`, the GI50 was 4.67 µM and the TGI was 53.9 µM.
On to `CC(C)C(C)/C=C\C(C)C1CCC2C3=CC=C4CC(O)CCC4(C)C3CCC21C` (stereo not given), for which the TGI is greater than 80.5 µM.
With `Cc1cc2c(cc1Cl)SC(N(N(C)C)S(=O)(=O)c1ccc(Cl)cc1)=NS2(=O)=O`, the GI50 is 24 µM and the TGI stood at 61.6 µM.
In the same order, the values of `Nc1ncnc2n[nH]c(Nc3ccc(F)cc3)c12` are 30.8 µM and greater than 100 µM.
For the molecule `OC(c1nc2ccccc2[nH]1)C(O)C(O)C(O)c1nc2ccccc2[nH]1` (stereo not given), the TGI was greater than 100 µM.
The molecule `CCOC(=O)c1cc2nc3ccccc3c(=O)n2c2ccccc12` came in with a TGI greater than 10 µM.
The molecule `Cc1cc(O)c(/C=N/C(=S)NCc2ccccc2)c(=O)o1` returned a TGI greater than 100 µM.
Same read-out and setting: in the case of `C[Si](C)(C)C1(Sc2ccccc2)SCCCS1` it was greater than 100 µM.
On to `Cc1cc(I)cc(CN(C)CCCN2CCCCC2)c1O`, for which the GI50 was 15.9 µM and the TGI was 33.1 µM.
The molecule `CC(C)(C)OC(=O)N[C@H]1CC2(C=C(Cl)C(=O)C(Cl)=C2)OC1=O` gave a TGI of 28.1 µM.
`COc1cc2c3c(n(C)c(=O)c2cc1OC)-c1cc2c(cc1/C3=C\CCN)OCO2`: the GI50 is 0.564 µM and the TGI worked out at 5.09 µM.
